# Test results taken from paper PMC8807399, “Synthesis, Characterization, and in vivo Evaluation of a Novel Potent Autotaxin-Inhibitor” (Frontiers in Pharmacology, 2022).
# Legend:
# [1] = biological target: T1, ECE-1 (Homo sapiens, UniProt P42892); experiment: Off-target screen ECE-1; type: biochemical; details: 10 µM; single point, duplicates
# T1 construct: purchased Eurofins CEREP SA
# [2] = biological target: T2, LPA3 receptor (Homo sapiens, UniProt Q9UBY5); experiment: Off-target screen LPA3 receptor, antagonist mode; type: cell-based; details: 10 µM, single point, duplicates
# T2 construct: purchased Eurofins CEREP SA
# [3] = biological target: T3, MMP-3 (Homo sapiens, UniProt P08254); experiment: Off-target screen MMP-3; type: biochemical; details: 10 µM; single point, duplicates
# T3 construct: purchased Eurofins CEREP SA
# [4] = biological target: T4, Histamine H1 receptor (Homo sapiens, UniProt P35367); experiment: Off-target screen Histamine H1; type: binding; details: 10 µM; single point, duplicates
# T4 construct: purchased Eurofins CEREP SA
# [5] = biological target: T5, Androgen receptor (Homo sapiens, UniProt P10275); experiment: Off-target screen Androgen receptor; type: binding; details: 10 µM; single point, duplicates
# T5 construct: purchased Eurofins CEREP SA
# [6] = tested on: Sodium channel (site 2); experiment: Off-target screen Sodium channel (site 2); details: 10 µM; single point, duplicates
# [7] = biological target: T6, S1P2 (Homo sapiens, UniProt O95136); experiment: Off-target screen S1P2, agonist mode; type: cell-based; details: 10 µM, single point, duplicates
# T6 construct: purchased Eurofins CEREP SA
# [8] = biological target: T7, Histamine H3 receptor (Homo sapiens, UniProt Q9Y5N1); experiment: Off-target screen Histamine H3; type: binding; details: 10 µM; single point, duplicates
# T7 construct: purchased Eurofins CEREP SA
# [9] = biological target: T8, 5HT1A (Homo sapiens, UniProt P08908); experiment: Off-target screen 5HT1A; type: binding; details: 10 µM; single point, duplicates
# T8 construct: purchased Eurofins CEREP SA
# [10] = biological target: T9, HDAC3 (Homo sapiens, UniProt O15379); experiment: Off-target screen HDAC3; type: biochemical; details: 10 µM; single point, duplicates
# T9 construct: purchased Eurofins CEREP SA
# [11] = biological target: T10, Neprilysin (neutral endopeptidase) (Homo sapiens, UniProt P08473); experiment: Off-target screen Neprilysin; type: biochemical; details: 10 µM; single point, duplicates
# T10 construct: purchased Eurofins CEREP SA
# T1 sequence (P42892 whole entry): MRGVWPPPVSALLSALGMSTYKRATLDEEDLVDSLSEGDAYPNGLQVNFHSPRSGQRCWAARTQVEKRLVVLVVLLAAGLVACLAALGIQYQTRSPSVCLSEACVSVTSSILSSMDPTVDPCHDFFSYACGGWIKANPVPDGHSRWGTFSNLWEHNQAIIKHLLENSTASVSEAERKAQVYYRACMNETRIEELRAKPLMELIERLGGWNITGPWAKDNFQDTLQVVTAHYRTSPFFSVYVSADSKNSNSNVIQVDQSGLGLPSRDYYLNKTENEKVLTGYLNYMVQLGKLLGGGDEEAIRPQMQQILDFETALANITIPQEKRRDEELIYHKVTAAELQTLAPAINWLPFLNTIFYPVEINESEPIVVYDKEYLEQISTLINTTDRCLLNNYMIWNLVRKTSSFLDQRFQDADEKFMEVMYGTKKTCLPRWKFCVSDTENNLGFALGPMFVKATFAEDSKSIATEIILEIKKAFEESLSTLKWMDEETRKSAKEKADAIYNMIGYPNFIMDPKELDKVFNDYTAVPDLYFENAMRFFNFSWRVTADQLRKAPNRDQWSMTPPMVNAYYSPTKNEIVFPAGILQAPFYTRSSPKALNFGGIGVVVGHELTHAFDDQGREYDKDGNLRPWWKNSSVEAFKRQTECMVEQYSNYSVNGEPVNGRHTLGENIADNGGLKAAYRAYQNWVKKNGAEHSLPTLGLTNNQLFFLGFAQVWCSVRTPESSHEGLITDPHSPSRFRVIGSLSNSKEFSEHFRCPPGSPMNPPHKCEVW
# T7 sequence (Q9Y5N1 whole entry): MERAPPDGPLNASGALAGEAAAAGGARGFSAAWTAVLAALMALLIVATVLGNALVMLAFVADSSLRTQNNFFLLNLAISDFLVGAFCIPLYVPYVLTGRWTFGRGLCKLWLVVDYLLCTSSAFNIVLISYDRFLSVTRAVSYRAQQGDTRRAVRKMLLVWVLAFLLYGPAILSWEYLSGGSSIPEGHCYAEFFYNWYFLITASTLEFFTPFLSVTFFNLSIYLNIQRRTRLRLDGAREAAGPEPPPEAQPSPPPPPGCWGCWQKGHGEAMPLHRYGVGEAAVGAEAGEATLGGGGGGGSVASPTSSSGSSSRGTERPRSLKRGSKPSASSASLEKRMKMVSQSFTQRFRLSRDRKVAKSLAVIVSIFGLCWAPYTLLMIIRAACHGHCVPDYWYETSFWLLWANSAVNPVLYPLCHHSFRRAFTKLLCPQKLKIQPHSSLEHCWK
# T3 sequence (P08254 100-477): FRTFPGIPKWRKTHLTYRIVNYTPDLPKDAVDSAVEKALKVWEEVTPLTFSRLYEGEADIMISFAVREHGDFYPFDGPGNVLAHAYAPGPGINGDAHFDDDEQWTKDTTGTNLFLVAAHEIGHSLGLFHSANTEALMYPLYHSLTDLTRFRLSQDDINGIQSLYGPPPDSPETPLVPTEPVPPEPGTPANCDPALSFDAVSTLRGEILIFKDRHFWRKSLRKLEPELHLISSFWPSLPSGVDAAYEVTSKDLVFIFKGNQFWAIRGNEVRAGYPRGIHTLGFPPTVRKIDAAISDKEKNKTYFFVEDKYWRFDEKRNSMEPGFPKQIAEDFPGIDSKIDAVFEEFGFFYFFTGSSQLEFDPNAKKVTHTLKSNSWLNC
# T5 sequence (P10275 whole entry): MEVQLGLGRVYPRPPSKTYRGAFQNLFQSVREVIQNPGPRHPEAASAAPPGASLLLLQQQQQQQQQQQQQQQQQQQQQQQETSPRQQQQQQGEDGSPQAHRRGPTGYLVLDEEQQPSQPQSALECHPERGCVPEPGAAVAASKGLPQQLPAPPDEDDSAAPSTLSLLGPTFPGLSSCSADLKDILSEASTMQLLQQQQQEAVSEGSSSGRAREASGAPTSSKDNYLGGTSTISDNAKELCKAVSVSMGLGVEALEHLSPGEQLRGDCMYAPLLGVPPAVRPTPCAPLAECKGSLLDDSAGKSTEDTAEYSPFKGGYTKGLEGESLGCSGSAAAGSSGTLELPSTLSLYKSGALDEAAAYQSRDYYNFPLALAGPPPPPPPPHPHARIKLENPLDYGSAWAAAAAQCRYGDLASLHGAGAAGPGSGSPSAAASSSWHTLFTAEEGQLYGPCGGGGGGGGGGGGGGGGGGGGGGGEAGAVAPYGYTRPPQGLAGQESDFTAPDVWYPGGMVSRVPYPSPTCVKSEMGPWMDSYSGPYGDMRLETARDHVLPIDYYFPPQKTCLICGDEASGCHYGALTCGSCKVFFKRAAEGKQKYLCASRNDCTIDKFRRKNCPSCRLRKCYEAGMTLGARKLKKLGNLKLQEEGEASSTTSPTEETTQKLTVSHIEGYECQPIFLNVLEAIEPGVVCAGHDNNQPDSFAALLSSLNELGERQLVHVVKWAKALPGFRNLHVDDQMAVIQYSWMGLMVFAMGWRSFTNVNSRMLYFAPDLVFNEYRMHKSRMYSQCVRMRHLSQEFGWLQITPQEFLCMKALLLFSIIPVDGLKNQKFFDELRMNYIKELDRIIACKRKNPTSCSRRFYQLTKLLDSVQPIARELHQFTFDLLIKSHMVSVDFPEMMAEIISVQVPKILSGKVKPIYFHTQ
# T2 sequence (Q9UBY5 whole entry): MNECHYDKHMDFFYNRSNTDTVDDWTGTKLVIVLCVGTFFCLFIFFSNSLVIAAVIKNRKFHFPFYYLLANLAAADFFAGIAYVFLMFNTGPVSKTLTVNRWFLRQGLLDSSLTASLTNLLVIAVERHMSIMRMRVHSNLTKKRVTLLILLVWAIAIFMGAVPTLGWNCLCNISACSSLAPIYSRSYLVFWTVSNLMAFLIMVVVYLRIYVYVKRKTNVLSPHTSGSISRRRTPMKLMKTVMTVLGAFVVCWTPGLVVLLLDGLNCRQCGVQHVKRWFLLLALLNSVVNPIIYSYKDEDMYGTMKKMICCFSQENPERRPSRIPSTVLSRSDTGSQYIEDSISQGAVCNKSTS
# T9 sequence (O15379 whole entry): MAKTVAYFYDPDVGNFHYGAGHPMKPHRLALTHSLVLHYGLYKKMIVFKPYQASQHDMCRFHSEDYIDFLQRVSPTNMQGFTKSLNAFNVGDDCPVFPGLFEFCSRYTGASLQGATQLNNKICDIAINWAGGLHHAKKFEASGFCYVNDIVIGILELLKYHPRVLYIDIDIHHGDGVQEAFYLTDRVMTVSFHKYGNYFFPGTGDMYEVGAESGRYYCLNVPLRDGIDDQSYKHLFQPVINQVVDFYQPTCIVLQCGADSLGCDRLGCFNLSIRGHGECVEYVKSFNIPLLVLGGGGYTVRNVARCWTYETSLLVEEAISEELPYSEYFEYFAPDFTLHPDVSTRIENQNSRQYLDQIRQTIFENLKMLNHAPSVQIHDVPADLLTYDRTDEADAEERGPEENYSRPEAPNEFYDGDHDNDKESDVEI
# T9 sequence (Q9Y618 395-489 partner limits assumed): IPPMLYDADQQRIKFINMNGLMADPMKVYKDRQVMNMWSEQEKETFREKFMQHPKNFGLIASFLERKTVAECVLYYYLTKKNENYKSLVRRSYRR
# T4 sequence (P35367 whole entry): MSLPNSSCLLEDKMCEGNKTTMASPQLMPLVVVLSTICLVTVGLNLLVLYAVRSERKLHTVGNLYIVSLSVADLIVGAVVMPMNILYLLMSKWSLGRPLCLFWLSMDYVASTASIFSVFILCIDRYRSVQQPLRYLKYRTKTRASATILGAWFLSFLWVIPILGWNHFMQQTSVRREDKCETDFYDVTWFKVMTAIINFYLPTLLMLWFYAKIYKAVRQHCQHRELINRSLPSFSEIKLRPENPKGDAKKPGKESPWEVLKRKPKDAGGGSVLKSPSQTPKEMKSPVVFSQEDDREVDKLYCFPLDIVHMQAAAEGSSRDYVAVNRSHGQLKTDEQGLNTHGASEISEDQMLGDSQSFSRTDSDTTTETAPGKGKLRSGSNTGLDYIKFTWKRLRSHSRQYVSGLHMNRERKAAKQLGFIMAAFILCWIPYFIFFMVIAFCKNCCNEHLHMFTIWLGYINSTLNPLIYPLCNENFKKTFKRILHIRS
# T6 sequence (O95136 whole entry): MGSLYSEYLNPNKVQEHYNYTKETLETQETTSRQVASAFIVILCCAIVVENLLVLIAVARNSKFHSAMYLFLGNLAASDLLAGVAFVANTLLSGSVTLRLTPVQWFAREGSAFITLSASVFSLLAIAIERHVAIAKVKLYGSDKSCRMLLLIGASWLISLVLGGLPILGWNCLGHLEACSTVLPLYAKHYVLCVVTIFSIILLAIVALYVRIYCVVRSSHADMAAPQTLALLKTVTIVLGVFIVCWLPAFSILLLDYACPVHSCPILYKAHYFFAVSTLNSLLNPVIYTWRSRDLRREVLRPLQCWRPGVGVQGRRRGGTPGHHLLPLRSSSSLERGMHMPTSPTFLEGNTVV
# T8 sequence (P08908 whole entry): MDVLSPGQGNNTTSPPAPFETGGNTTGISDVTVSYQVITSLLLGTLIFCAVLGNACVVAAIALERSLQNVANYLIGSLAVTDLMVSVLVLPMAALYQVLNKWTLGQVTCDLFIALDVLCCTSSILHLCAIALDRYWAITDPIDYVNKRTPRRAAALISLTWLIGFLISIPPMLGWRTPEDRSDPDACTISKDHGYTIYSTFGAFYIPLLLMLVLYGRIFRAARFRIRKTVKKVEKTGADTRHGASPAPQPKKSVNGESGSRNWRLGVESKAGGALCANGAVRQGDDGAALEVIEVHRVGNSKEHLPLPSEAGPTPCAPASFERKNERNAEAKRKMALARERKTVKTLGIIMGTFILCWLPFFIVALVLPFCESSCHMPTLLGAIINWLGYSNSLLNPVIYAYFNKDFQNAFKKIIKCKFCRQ
structure (smiles),measurement,setting,value
"O=C(OCc1ccc(OC(F)(F)F)cc1)N1C[C@@H]2CN(C(=O)c3ccc4[nH]nnc4c3)C[C@H]2C1 [Compound 13, (3aS,6aS)-5-(1H-Benzotriazole-5-carbonyl)-hexahydro-pyrrolo[3,4-c]pyrrole-2-carboxylic acid 4-trifluoromethoxy-benzyl ester]",ECE-1 (h) [% inhib],[1],16 % inhib
same,"LPA3 receptor (h), antago. mode [% inhib]",[2],56 % inhib
same,MMP-3 (h) [% inhib],[3],3 % inhib
same,Histamine H1 receptor (h) [% inhib],[4],5 % inhib
same,Androgen receptor (h) [% inhib],[5],-1 % inhib
same,Sodium channel (site 2) (r) [% inhib],[6],49 % inhib
same,"S1P2 (h), agonist mode [% pos ctrl]",[7],-2 % pos ctrl
same,Histamine H3 receptor (h) [% inhib],[8],-10 % inhib
same,5HT1A (h) [% inhib],[9],-20 % inhib
same,HDAC3 (h) [% inhib],[10],1 % inhib
same,Neprilysin (neutral endopeptidase) (h) [% inhib],[11],-29 % inhib
